{"source": "paper PMC12067128", "about": "“Macrocyclization: Enhancing Drug-like Properties of Discoidin Domain Receptor Kinase Inhibitors” (ACS Medicinal Chemistry Letters, 2025)", "key": {"[1]": {"assay": "log k'80 PLRP-S chromatographic descriptor", "assay_type": "physicochemical", "conditions": "surrogate of log Dtol", "text": "(§1) Lipophilicity has been obtained in four different systems. BRlogD and ChromlogD are chromatographic surrogates of log Doct and, despite showing different values, are linearly correlated (Figure S4). Log k′ 80 PLRP-S is a surrogate of log Dtol. Log kw ^IAM mimics the interaction between the compounds and the phospholipids of membranes. The combination of the experimental lipophilicity descriptors is essential to evaluate lipophilicity in different regions of the membrane bilayer. This complete lipophilicity profile may give an idea of the permeability potential of poorly soluble compounds for which standard permeability measurements are unreliable. […] This is supported by its low IC50 value in the cell-based assay."}, "[2]": {"assay": "log kW IAM (immobilized artificial membrane chromatography)", "assay_type": "physicochemical", "conditions": "lipophilicity descriptor, phospholipid interaction", "text": "as §1"}, "[3]": {"assay": "Kinetic solubility", "assay_type": "physicochemical", "conditions": "for solubility kinetic at 2 h: phosphate buffered saline, PBS pH 7.4, 2% DMSO, 2 h room temperature, assay range 5-200 µM, read-out: KS (kinetic solubility)", "description": "Using a stock solution of test compound in 100% DMSO, duplicate dilutions were prepared at a nominal concentration of 200 µM in 0.1 M phosphate buffered saline (PBS) at pH 7.4, with a 2% final DMSO content. Test compound calibration standards were prepared at 200 µM and 10 µM in 100%\nDMSO. The PBS and DMSO dilutions were equilibrated on a shaking platform at room temperature for two hours prior to filtration using a Multiscreen HTS solubility filter plate (Millipore). Filtrates were analysed by LC-UV-MS and the concentration of compound in PBS filtrate determined by comparing the UV absorbance peak with that of the two DMSO calibration standards. Mass spectrometry will be used to confirm the presence of the expected molecular ion in the UV peak measured. The effective range of the assay is 5 – 200 µM. […]"}, "[4]": {"assay": "Caco-2 membrane permeability assay", "assay_type": "in vitro ADME", "conditions": "human", "description": "(§2) Lucifer Yellow (LY) was added to the apical buffer in all wells to assess viability of the cell layer. As LY cannot freely permeate lipophilic barriers, a high degree of LY transport indicates poor integrity of the cell layer and wells with a LY Papp > 10 x 10-6 cm/s were rejected. Compound recovery from the wells was determined from MS responses (normalised to internal standard) in donor and acceptor chambers at the end of incubation compared to response in the donor chamber pre- […]\n(§3) which may reduce the reliability of a result.\n(§4) Caco-2 membrane permeability assay\n(§5) Caco-2 cells (ECACC) were cultured in DMEM, 10% FBS, 1% NEAA, Hepes buffer 10 mM and in 50 U/mL penicillin and […] streptomycin. For transport studies, 200,000 cells/well were seeded on Millicell 24-well cell culture plates. After 24 hours of incubation at 37 °C and 5% CO2, the medium was changed with Enterocyte Differentiation Medium (Becton Dickinson), which allows Caco-2 cells to establish within three days a differentiated enterocyte monolayer. The permeability of the compounds across the cells’ monolayer was determined by measuring their transport in both directions: apical to basolateral (A → B) and basolateral to apical (B → A). For A → B directional transport, the donor working solution with test article 10 m M) was added to the apical (A) compartment and HBSS (pH 7.4) was added to the basolateral (B). For B → A directional transport, the donor working solution (with test article 10 m M) was added to the basolateral (B) compartment and HBSS (pH 7.4) was added to the apical (A). Samples were collected at T0 and after 2h incubation (5% CO2, 95% relative humidity, 37 °C) for LC-MS/MS analyses. The Papp expressed as nm/sec was calculated as follows: Papp (nm/sec) = (Vr/C0) x (1/A) x (Cr(t)/T) x 1000 000. Where\nVr is the volume of the solution in the receiving compartment (mL); C0 is initial test compound concentration in the donor compartment (expressed as area ratio); A is the membrane surface area (cm2); Cr (t) = measured concentration of the receiver well at time T120 (expressed as area ratio) and T is time of incubation (sec). Efflux ratio was also measured to understand if the compounds undergo active efflux: Efflux ratio = Papp [B > A] / Papp [A > B]. The rank order of apparent permeability of the test compound was compared with that of known reference compounds tested in the same experiment, including Sulpiride and Metoprolol (as marker for low and high permeability, respectively and Talinolol (as known P-gp substrate). […]"}, "[5]": {"assay": "Δlog kW IAM polarity descriptor", "assay_type": "physicochemical", "conditions": "polarity in aqueous medium", "description": "(§6) Polarity is quantified by two descriptors: EPSA and Δlog kw ^IAM. The first is measured in an almost fully nonpolar environment, and the second describes polarity in an aqueous medium. […] This is also in line with the higher solubility of KIMCs over 1."}, "[6]": {"target": "T1, Pgp (Homo sapiens, UniProt P08183)", "T1 construct": "host or cells: Caco-2 cells", "T1 sequence (P08183 whole entry)": "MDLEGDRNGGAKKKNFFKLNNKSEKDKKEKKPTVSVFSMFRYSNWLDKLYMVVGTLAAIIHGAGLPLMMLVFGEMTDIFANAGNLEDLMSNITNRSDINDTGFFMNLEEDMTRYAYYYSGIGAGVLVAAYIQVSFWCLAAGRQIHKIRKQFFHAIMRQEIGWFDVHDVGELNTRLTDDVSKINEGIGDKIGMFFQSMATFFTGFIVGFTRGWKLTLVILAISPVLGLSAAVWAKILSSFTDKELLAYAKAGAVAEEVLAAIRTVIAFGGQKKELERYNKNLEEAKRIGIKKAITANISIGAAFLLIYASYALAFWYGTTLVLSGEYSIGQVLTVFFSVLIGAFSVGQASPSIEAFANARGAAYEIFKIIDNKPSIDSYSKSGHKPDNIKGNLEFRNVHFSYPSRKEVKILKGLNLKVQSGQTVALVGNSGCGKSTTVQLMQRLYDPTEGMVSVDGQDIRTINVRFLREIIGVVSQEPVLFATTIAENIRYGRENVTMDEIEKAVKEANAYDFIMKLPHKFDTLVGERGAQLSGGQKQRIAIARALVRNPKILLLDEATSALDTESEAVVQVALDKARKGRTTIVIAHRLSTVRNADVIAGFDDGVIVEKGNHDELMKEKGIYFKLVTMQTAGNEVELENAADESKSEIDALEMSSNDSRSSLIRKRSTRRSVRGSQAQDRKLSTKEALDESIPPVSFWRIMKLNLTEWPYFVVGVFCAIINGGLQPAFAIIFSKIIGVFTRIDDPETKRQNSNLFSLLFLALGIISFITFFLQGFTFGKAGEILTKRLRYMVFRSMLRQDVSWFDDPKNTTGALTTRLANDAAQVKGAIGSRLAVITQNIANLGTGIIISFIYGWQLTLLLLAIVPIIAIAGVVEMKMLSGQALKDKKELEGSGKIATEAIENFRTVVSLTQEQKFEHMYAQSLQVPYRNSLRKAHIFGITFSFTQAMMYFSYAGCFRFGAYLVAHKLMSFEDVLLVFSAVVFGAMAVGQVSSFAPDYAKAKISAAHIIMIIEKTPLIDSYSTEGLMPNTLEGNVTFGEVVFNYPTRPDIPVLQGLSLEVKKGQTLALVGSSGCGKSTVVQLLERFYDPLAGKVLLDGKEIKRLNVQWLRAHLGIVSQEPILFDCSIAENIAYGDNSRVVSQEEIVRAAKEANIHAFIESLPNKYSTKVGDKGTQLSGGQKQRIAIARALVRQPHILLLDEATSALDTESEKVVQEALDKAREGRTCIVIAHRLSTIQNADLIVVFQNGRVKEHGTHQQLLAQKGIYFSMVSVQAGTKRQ", "assay": "Pgp substrate assessment from Caco-2 permeability with/without Pgp inhibitor", "assay_type": "in vitro ADME", "description": "as §2, §3, §4\nas §5, with “For B → A directional transport, the donor working solution (with test article 10 m M) was added to the basolateral (B) compartment and HBSS (pH 7.4) was added to the apical (A). Samples were collected at T0 and after 2h incubation (5% CO2, 95% relative humidity, 37 °C) for LC-MS/MS analyses.” left out, “Where” left out\nVr is the volume of the solution in the receiving compartment (mL); C0 is initial test compound concentration in the donor compartment (expressed as area ratio); A is the membrane surface area (cm2); Cr (t) = measured concentration of the receiver well at time T120 (expressed as area ratio) and T is time of incubation (sec). Efflux ratio was also measured to understand if the compounds undergo active efflux: Efflux ratio = Papp [B > A] / Papp [A > B]. […]"}, "[7]": {"assay": "BRlogD chromatographic lipophilicity", "assay_type": "physicochemical", "conditions": "XBridge Shield RP18, pH 7.0, 60% acetonitrile"}, "[8]": {"assay": "EPSA polarity descriptor", "assay_type": "physicochemical", "conditions": "almost fully nonpolar environment; polarity in nonpolar environment", "description": "as §6"}, "[9]": {"assay": "MDCK-WT permeability assay", "conditions": "dog, MDCK, pH 7.4"}, "[10]": {"system": "MDCK-WT wild-type cells", "assay": "MDCK-WT permeability assay"}, "[11]": {"system": "MDCK-WT wild-type cells"}, "[12]": {"assay": "in vitro", "conditions": "dog, MDCK, pH 7.4"}, "[13]": {"conditions": "Caco-2, pH 7.4, A to B, without Pgp inhibitor, pH 7.4, 2 h, read-out: Caco-2 Papp AB without Pgp inhibitor"}, "[14]": {"conditions": "Caco-2, pH 7.4, B to A, without Pgp inhibitor, pH 7.4, 2 h, read-out: Caco-2 Papp BA without Pgp inhibitor (converted)"}, "[15]": {"conditions": "Caco-2, pH 7.4, with Pgp inhibitor (name and concentration not stated), A to B, with Pgp inhibitor, pH 7.4, 2 h, read-out: Caco-2 Papp AB with Pgp inhibitor"}, "[16]": {"conditions": "Caco-2, pH 7.4, with Pgp inhibitor (name and concentration not stated), B to A, with Pgp inhibitor, pH 7.4, 2 h, read-out: Caco-2 Papp BA with Pgp inhibitor (converted)"}, "[17]": {"conditions": "Caco-2, pH 7.4, Caco-2 Papp AB with Pgp inhibitor"}, "[18]": {"conditions": "Caco-2, pH 7.4, Caco-2 Papp AB without Pgp inhibitor"}, "[19]": {"conditions": "Caco-2, pH 7.4, Caco-2 Papp BA with Pgp inhibitor"}, "[20]": {"conditions": "Caco-2, pH 7.4, Caco-2 Papp BA without Pgp inhibitor"}}, "note": "Read-outs that look alike come from different tables or passages of the source."}
{"smiles": "O=C1COc2ccc(cc2)Nc2ccnc(n2)Nc2cnn(c2)CCCN1", "note": "[Compound 6b]", "values": [{"measurement": "logk'80 PLRP-S", "setting": "[1]", "value": -0.85}, {"measurement": "log kW^IAM", "setting": "[2]", "value": 1.53}, {"measurement": "kinetic solubility (in words)", "setting": "[3]", "value": "highly soluble"}, {"measurement": "solubility kinetic at 2 h", "setting": "[3]", "value": "198 ± 3", "unit": "µM"}, {"measurement": "Papp A→B at 2 h, 10 µM", "setting": "[4]; [13]", "value": "6 ± 1", "unit": "nm/s"}, {"measurement": "Papp B→A at 2 h, 10 µM", "setting": "[4]; [14]", "value": 223, "unit": "nm/s"}, {"measurement": "Papp A→B at 2 h, 10 µM", "setting": "[4]; [15]", "value": "55 ± 2", "unit": "nm/s"}, {"measurement": "Papp B→A at 2 h, 10 µM", "setting": "[4]; [16]", "value": 203, "unit": "nm/s"}, {"measurement": "Δlog kW^IAM", "setting": "[5]", "value": 2.58}, {"measurement": "Pgp substrate", "setting": "[6]; Caco-2 model", "value": "YES"}, {"measurement": "BRlogD", "setting": "[7]", "value": -0.03}, {"measurement": "EPSA", "setting": "[8]", "value": 108, "unit": "A^2"}, {"measurement": "Papp A→B at 1 h, 10 µM", "setting": "[9]", "value": "48 ± 10", "unit": "nm/s"}, {"measurement": "permeability in the MDCK model (in words)", "setting": "[10]", "value": "moderately permeable"}]}
{"smiles": "c1cc2nc(n1)Nc1cnn(c1)CCCNCCOc1ccc(cc1)N2", "note": "[Compound 6a]", "values": [{"measurement": "logk'80 PLRP-S", "setting": "[1]", "value": -0.93}, {"measurement": "permeability in the MDCK model (in words)", "setting": "[11]", "value": "moderately permeable"}, {"measurement": "log kW^IAM", "setting": "[2]", "value": 1.96}, {"measurement": "kinetic solubility (in words)", "setting": "[3]", "value": "highly soluble"}, {"measurement": "solubility kinetic at 2 h", "setting": "[3]", "value": "188 ± 18", "unit": "µM"}, {"measurement": "Papp A→B at 2 h, 10 µM", "setting": "[4]; [17]", "value": "87 ± 19", "unit": "nm/s"}, {"measurement": "Papp A→B at 2 h, 10 µM", "setting": "[4]; [18]", "value": "19 ± 5", "unit": "nm/s"}, {"measurement": "Papp B→A at 2 h, 10 µM", "setting": "[4]; [19]", "value": 70, "unit": "nm/s"}, {"measurement": "Papp B→A at 2 h, 10 µM", "setting": "[4]; [20]", "value": 220, "unit": "nm/s"}, {"measurement": "Papp A→B at 1 h, 10 µM", "setting": "[12]", "value": "58 ± 11", "unit": "nm/s"}, {"measurement": "Δlog kW^IAM", "setting": "[5]", "value": 3.26}, {"measurement": "Pgp substrate", "setting": "[6]; Caco-2", "value": "YES"}, {"measurement": "BRlogD", "setting": "[7]", "value": -0.29}, {"measurement": "EPSA", "setting": "[8]", "value": 127, "unit": "A^2"}]}
{"smiles": "Cn1cc2c3nc(ncc31)Nc1cnn(c1)CCCNCCOc1ccc-2cc1", "note": "[Compound 5a]", "values": [{"measurement": "logk'80 PLRP-S", "setting": "[1]", "value": -0.65}, {"measurement": "permeability in the MDCK model (in words)", "setting": "[11]", "value": "highly permeable"}, {"measurement": "log kW^IAM", "setting": "[2]", "value": 2.33}, {"measurement": "kinetic solubility (in words)", "setting": "[3]", "value": "less soluble"}, {"measurement": "solubility kinetic at 2 h", "setting": "[3]", "value": "20 ± 3", "unit": "µM"}, {"measurement": "Papp A→B at 2 h, 10 µM", "setting": "[4]; [17]", "value": "199 ± 27", "unit": "nm/s"}, {"measurement": "Papp A→B at 2 h, 10 µM", "setting": "[4]; [18]", "value": "102 ± 15", "unit": "nm/s"}, {"measurement": "Papp B→A at 2 h, 10 µM", "setting": "[4]; [19]", "value": 135, "unit": "nm/s"}, {"measurement": "Papp B→A at 2 h, 10 µM", "setting": "[4]; [20]", "value": 242, "unit": "nm/s"}, {"measurement": "Papp A→B at 1 h, 10 µM", "setting": "[12]", "value": "184 ± 6", "unit": "nm/s"}, {"measurement": "Δlog kW^IAM", "setting": "[5]", "value": 2.77}, {"measurement": "BRlogD", "setting": "[7]", "value": 0.64}, {"measurement": "EPSA", "setting": "[8]", "value": 125, "unit": "A^2"}]}
{"smiles": "Cn1cc2c3nc(ncc31)Nc1cnn(c1)CCCNC(=O)COc1ccc-2cc1", "note": "[Compound 5b]", "values": [{"measurement": "logk'80 PLRP-S", "setting": "[1]", "value": -0.68}, {"measurement": "log kW^IAM", "setting": "[2]", "value": 1.87}, {"measurement": "kinetic solubility (in words)", "setting": "[3]", "value": "less soluble"}, {"measurement": "solubility kinetic at 2 h", "setting": "[3]", "value": "16 ± 1", "unit": "µM"}, {"measurement": "Papp A→B at 2 h, 10 µM", "setting": "[4]; [13]", "value": "30 ± 6", "unit": "nm/s"}, {"measurement": "Papp B→A at 2 h, 10 µM", "setting": "[4]; [14]", "value": 215, "unit": "nm/s"}, {"measurement": "Papp A→B at 2 h, 10 µM", "setting": "[4]; [15]", "value": "228 ± 28", "unit": "nm/s"}, {"measurement": "Papp B→A at 2 h, 10 µM", "setting": "[4]; [16]", "value": 159, "unit": "nm/s"}, {"measurement": "Δlog kW^IAM", "setting": "[5]", "value": 2.41}, {"measurement": "Pgp substrate", "setting": "[6]; Caco-2 model", "value": "YES"}, {"measurement": "BRlogD", "setting": "[7]", "value": 0.53}, {"measurement": "EPSA", "setting": "[8]", "value": 106, "unit": "A^2"}, {"measurement": "Papp A→B at 1 h, 10 µM", "setting": "[9]", "value": "210 ± 8", "unit": "nm/s"}, {"measurement": "permeability in the MDCK model (in words)", "setting": "[10]", "value": "highly permeable"}]}
